Test results as given in US9593110B2, “Neprilysin inhibitors” (Theravence Biopharma R&D IP, LLC, priority 2014, dated 2017).

Target: human NEP (Homo sapiens (Human), UniProt P08473)
Assay: In vitro enzyme inhibition assay at human NEP
Conditions: pKi, recombinant human NEP, fluorogenic peptide substrate, 37° C.

Sequence of human NEP (P08473 52-750): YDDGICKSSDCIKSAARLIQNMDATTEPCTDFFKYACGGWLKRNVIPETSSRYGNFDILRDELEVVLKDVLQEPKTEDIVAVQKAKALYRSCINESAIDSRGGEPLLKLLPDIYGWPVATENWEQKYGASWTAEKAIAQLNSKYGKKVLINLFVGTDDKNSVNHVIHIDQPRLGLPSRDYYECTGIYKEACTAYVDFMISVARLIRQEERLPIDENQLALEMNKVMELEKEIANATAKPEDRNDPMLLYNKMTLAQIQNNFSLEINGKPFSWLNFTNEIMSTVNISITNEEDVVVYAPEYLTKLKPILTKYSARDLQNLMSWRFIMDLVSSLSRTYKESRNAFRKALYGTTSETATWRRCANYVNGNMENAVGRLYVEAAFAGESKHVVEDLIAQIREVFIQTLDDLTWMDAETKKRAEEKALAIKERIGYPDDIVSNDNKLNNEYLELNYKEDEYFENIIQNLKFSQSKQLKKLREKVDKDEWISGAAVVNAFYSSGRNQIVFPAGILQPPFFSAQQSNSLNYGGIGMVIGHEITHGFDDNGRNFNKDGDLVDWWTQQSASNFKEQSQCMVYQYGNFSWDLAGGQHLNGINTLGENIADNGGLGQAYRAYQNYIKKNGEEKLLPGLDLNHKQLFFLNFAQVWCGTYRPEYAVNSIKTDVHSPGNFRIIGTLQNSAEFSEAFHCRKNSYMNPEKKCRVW

| Ki [nM] | Compound |
| --- | --- |
| ≤ 1 | O=C(N[C@H](Cc1ccc(-c2cc(Cl)ccc2F)cc1)C[C@@H](CNCCO)C(=O)O)c1cnn[nH]1 (single isomer, unassigned) [Example 48a] |
| 1.26 to 3.16 | O=C(N[C@H](Cc1ccc(-c2cc(Cl)ccc2F)cc1)C[C@@H](CNCCO)C(=O)O)c1cnn[nH]1 (single isomer, unassigned) [Example 48b] |
| ≤ 1 | COCCNC[C@H](C[C@@H](Cc1ccc(-c2cc(Cl)ccc2F)cc1)NC(=O)c1cnn[nH]1)C(=O)O (single isomer, unassigned) [Example 49a] |
| 3.16 to 10 | Cc1cc(C(=O)NC(Cc2ccc(-c3cc(Cl)ccc3F)cc2)C[C@@H](CC#N)C(=O)O)sn1 (single isomer, unassigned) [Example 52-2] |
| 3.16 to 10 | O=C(N[C@H](Cc1ccc(-c2cc(Cl)ccc2F)cc1)CC(C(=O)O)c1cccnc1)c1cnn[nH]1 (single isomer, unassigned) [Example 77a] |
| ≤ 1 | O=C(N[C@H](Cc1ccc(-c2cc(Cl)ccc2F)cc1)CC(C(=O)O)C1CCNCC1)c1cnn[nH]1 (stereo in doubt) [Example 59, (S)-5-(5′-Chloro-2′-fluorobiphenyl-4-yl)-2-piperidin-4-yl-4-[(3H-[1,2,3]triazole-4-carbonyl)amino]pentanoic Acid] |
| 3.16 to 10 | CC(=O)N1CCC(C(C[C@@H](Cc2ccc(-c3ccccc3)cc2)NC(=O)c2cnn[nH]2)C(=O)O)CC1 (stereo in doubt) [Example 60, (S)-2-(1-Acetylpiperidin-4-yl)-5-biphenyl-4-yl-4-[(3H-[1,2,3]triazole-4-carbonyl)amino]pentanoic Acid] |
| 12.6 to 31.6 | O=C(N[C@H](Cc1ccc(-c2cc(Cl)ccc2F)cc1)CC(C(=O)O)c1ccccn1)c1cnn[nH]1 (stereo in doubt) [Example 76, (S)-5-(5′-Chloro-2′-fluorobiphenyl-4-yl)-2-pyridin-2-yl-4-[(3H-[1,2,3]triazole-4-carbonyl)amino]pentanoic Acid] |
| 1.26 to 3.16 | O=C(N[C@H](Cc1ccc(-c2cc(Cl)ccc2F)cc1)CC(C(=O)O)c1cccs1)c1cnn[nH]1 (stereo in doubt) [Example 78, (S)-5-(5′-Chloro-2′-fluorobiphenyl-4-yl)-2-thiophen-2-yl-4-[(3H-[1,2,3]triazole-4-carbonyl)amino]pentanoic Acid] |
| 1.26 to 3.16 | O=C(N[C@H](Cc1ccc(-c2cc(Cl)ccc2F)cc1)CC(C(=O)O)c1ccsc1)c1cnn[nH]1 (stereo in doubt) [Example 79, (S)-5-(5′-Chloro-2′-fluorobiphenyl-4-yl)-2-thiophen-3-yl-4-[(3H-[1,2,3]triazole-4-carbonyl)amino]pentanoic Acid] |
| 1.26 to 3.16 | COC[C@H](C[C@@H](Cc1ccc(-c2cc(Cl)ccc2F)cc1)NC(=O)c1c[nH]c(=O)o1)C(=O)O [Example 2-10, (2S,4S)-5-(5′-Chloro-2′-fluorobiphenyl-4-yl)-2-methoxymethyl-4-[(2-oxo-2,3-dihydro-oxazole-5-carbonyl)amino]pentanoic acid] |
| ≤ 1 | CCOC[C@H](C[C@@H](Cc1ccc(-c2cccc(Cl)c2)cc1)NC(=O)c1cc(O)no1)C(=O)O [Example 8, (2S,4S)-5-(3′-Chlorobiphenyl-4-yl)-2-ethoxymethyl-4-[(3-hydroxyisoxazole-5-carbonyl)amino]pentanoic Acid] |

| Compound | Ki [nM] |
| --- | --- |
| O=C(N[C@H](Cc1ccc(-c2ccccc2)cc1)CC(C(=O)O)C1CCOCC1)c1cnn[nH]1 (stereo in doubt) [Example 58, (S)-5-Biphenyl-4-yl-2-(tetrahydropyran-4-yl)-4-[(3H-[1,2,3]triazole-4-carbonyl)amino]pentanoic Acid] | 3.16 to 10 |
| COC[C@H](C[C@@H](Cc1ccc(-c2cc(Cl)ccc2F)cc1)NC(=O)c1[nH]nc(C2CC2)c1F)C(=O)O [Example 2-3, (2S,4S)-5-(5′-Chloro-2′-fluorobiphenyl-4-yl)-4-[(5-cyclopropyl-4-fluoro-2H-pyrazole-3-carbonyl)amino]-2-methoxymethylpentanoic acid] | 1.26 to 3.16 |
| CCOC[C@H](C[C@@H](Cc1ccc(-c2cc(Cl)ccc2F)cc1)NC(=O)c1cocn1)C(=O)O [Example 7-7, (2S,4S)-5-(5′-Chloro-2′-fluorobiphenyl-4-yl)-2-ethoxymethyl-4-[(oxazole-4-carbonyl)amino]pentanoic acid] | 1.26 to 3.16 |
| CCOC[C@H](C[C@@H](Cc1ccc(-c2cc(Cl)ccc2F)cc1)NC(=O)c1coc(C2CC2)n1)C(=O)O [Example 7-8, (2S,4S)-5-(5′-Chloro-2′-fluorobiphenyl-4-yl)-4-[(2-cyclopropyloxazole-4-carbonyl)amino]-2-ethoxymethylpentanoic acid] | 1.26 to 3.16 |

Same assay, conditions: recombinant human NEP, fluorogenic peptide substrate, 37° C.

| pKi | Compound |
| --- | --- |
| ≧9.0 | COC[C@H](C[C@@H](Cc1ccc(-c2cc(Cl)ccc2F)cc1)NC(=O)c1cc(C(C)=O)n[nH]1)C(=O)O [Example 2-4, (2S,4S)-4-[(5-Acetyl-2H-pyrazole-3-carbonyl)-amino]-5-(5′-chloro-2′-fluorobiphenyl-4-yl)-2-methoxymethylpentanoic acid] |
| ≧9.0 | COC[C@H](C[C@@H](Cc1ccc(-c2cc(Cl)ccc2F)cc1)NC(=O)c1cc(O)no1)C(=O)O [Example 2-5, (2S,4S)-5-(5′-Chloro-2′-fluorobiphenyl-4-yl)-4-[(3-hydroxyisoxazole-5-carbonyl)-amino]-2-methoxymethylpentanoic acid] |
| ≧9.0 | COC[C@H](C[C@@H](Cc1ccc(-c2cc(Cl)ccc2F)cc1)NC(=O)c1ncco1)C(=O)O [Example 2-7, (2S,4S)-5-(5′-Chloro-2′-fluorobiphenyl-4-yl)-2-methoxymethyl-4-[(oxazole-2-carbonyl)amino]pentanoic acid] |
| ≧9.0 | COC[C@H](C[C@@H](Cc1ccc(-c2cc(Cl)ccc2F)cc1)NC(=O)c1noc(=O)[nH]1)C(=O)O [Example 2-11, (2S,4S)-5-(5′-Chloro-2′-fluorobiphenyl-4-yl)-2-methoxymethyl-4-[(5-oxo-4,5-dihydro-[1,2,4]oxadiazole-3-carbonyl)amino]pentanoic acid] |
| ≧9.0 | COC[C@H](C[C@@H](Cc1ccc(-c2cc(Cl)ccc2F)cc1)NC(=O)c1ccc(Cl)cn1)C(=O)O [Example 2-12, (2S,4S)-5-(5′-Chloro-2′-fluorobiphenyl-4-yl)-4-[(5-chloro-pyridine-2-carbonyl)-amino]-2-methoxymethylpentanoic acid] |
| ≧9.0 | COC[C@H](C[C@@H](Cc1ccc(-c2cc(Cl)ccc2F)cc1)NC(=O)c1ccc(C(F)(F)F)cn1)C(=O)O [Example 2-14, (2S,4S)-5-(5′-Chloro-2′-fluorobiphenyl-4-yl)-2-methoxymethyl-4-[(5-trifluoromethylpyridine-2-carbonyl)amino]pentanoic acid] |
| ≧9.0 | COC[C@H](C[C@@H](Cc1ccc(-c2cccc(Cl)c2)cc1)NC(=O)c1n[nH]c(C(F)(F)F)n1)C(=O)O [Example 4-1, (2S,4S)-5-(3′-Chlorobiphenyl-4-yl)-2-methoxymethyl-4-[(5-trifluoromethyl-1H-[1,2,4]triazole-3-carbonyl)amino]pentanoic acid] |
| ≧9.0 | COC[C@H](C[C@@H](Cc1ccc(-c2cccc(Cl)c2)cc1)NC(=O)c1cc(O)no1)C(=O)O [Example 4-2, (2S,4S)-5-(3′-Chlorobiphenyl-4-yl)-4-[(3-hydroxy-isoxazole-5-carbonyl)amino]-2-methoxymethylpentanoic acid] |
| ≧9.0 | COC[C@H](C[C@@H](Cc1ccc(-c2cccc(Cl)c2)cc1)NC(=O)c1noc(=O)[nH]1)C(=O)O [Example 4-3, (2S,4S)-5-(3′-Chlorobiphenyl-4-yl)-2-methoxymethyl-4-[(5-oxo-4,5-dihydro-[1,2,4]oxadiazole-3-carbonyl)amino]pentanoic acid] |
| ≧9.0 | CCOC[C@H](C[C@@H](Cc1ccc(-c2cc(Cl)ccc2F)cc1)NC(=O)c1n[nH]c(C(F)(F)F)n1)C(=O)O [Example 6, (2S,4S)-5-(5′-Chloro-2′-fluorobiphenyl-4-yl)-2-ethoxymethyl-4-[(5-trifluoromethyl-1H-[1,2,4]triazole-3-carbonyl)amino]pentanoic Acid] |
| ≧9.0 | CCOC[C@H](C[C@@H](Cc1ccc(-c2cc(Cl)ccc2F)cc1)NC(=O)c1cc(C(C)=O)n[nH]1)C(=O)O [Example 7-3, (2S,4S)-4-[(5-Acetyl-2H-pyrazole-3-carbonyl)-amino]-5-(5′-chloro-2′-fluorobiphenyl-4-yl)-2-ethoxymethylpentanoic acid] |
| ≧9.0 | CCOC[C@H](C[C@@H](Cc1ccc(-c2cc(Cl)ccc2F)cc1)NC(=O)c1cc(CC)no1)C(=O)O [Example 7-5, (2S,4S)-5-(5′-Chloro-2′-fluorobiphenyl-4-yl)-2-ethoxymethyl-4-[(3-ethylisoxazole-5-carbonyl)amino]pentanoic acid] |
| ≧9.0 | CCOC[C@H](C[C@@H](Cc1ccc(-c2cc(Cl)ccc2F)cc1)NC(=O)c1ncco1)C(=O)O [Example 7-6, (2S,4S)-5-(5′-Chloro-2′-fluorobiphenyl-4-yl)-2-ethoxymethyl-4-[(oxazole-2-carbonyl)amino]pentanoic acid] |
| ≧9.0 | CCOC[C@H](C[C@@H](Cc1ccc(-c2cc(Cl)ccc2F)cc1)NC(=O)c1c[nH]c(=O)o1)C(=O)O [Example 7-9, (2S,4S)-5-(5′-Chloro-2′-fluorobiphenyl-4-yl)-2-ethoxymethyl-4-[(2-oxo-2,3-dihydro-oxazole-5-carbonyl)amino]pentanoic acid] |
| ≧9.0 | CCOC[C@H](C[C@@H](Cc1ccc(-c2cc(Cl)ccc2F)cc1)NC(=O)c1noc(=O)[nH]1)C(=O)O [Example 7-10, (2S,4S)-5-(5′-Chloro-2′-fluorobiphenyl-4-yl)-2-ethoxymethyl-4-[(5-oxo-4,5-dihydro-[1,2,4]oxadiazole-3-carbonyl)amino]pentanoic acid] |
| ≧9.0 | CCOC[C@H](C[C@@H](Cc1ccc(-c2cc(Cl)ccc2F)cc1)NC(=O)c1ncccn1)C(=O)O [Example 7-11, (2S,4S)-5-(5′-Chloro-2′-fluorobiphenyl-4-yl)-2-ethoxymethyl-4-[(pyrimidine-2-carbonyl)amino]pentanoic acid] |
| ≧9.0 | CCOC[C@H](C[C@@H](Cc1ccc(-c2cccc(Cl)c2)cc1)NC(=O)c1c[nH]nn1)C(=O)O [Example 9-1, (2S,4S)-5-(3′-Chlorobiphenyl-4-yl)-2-ethoxymethyl-4-[(1H-[1,2,3]triazole-4-carbonyl)amino]pentanoic acid] |
